Laboratory results taken from US20070259094A1, “N-acetylglucosamine as a food and beverage additive” (priority 2002, published 2007).
Like-named read-outs stand apart in the source and are kept apart here. One block for each molecule: values may come before it.

Key:
[1] = Bran muffin baking behaviour at 400° F. (204° C.); assay type: physicochemical; conditions: bran muffins baked at 204° C.
Method: Measure out 4 times 415 mL dry muffin mix (sufficient to make 6 muffins each) to make up the following formulae
Add to each dry mix 160 mL of water and ¼ of egg mixture and mix thoroughly.
Pour equal amounts into 6 muffin cups for each of the formulae.
Preheat oven to 400° F. or 204° C., bake each formula separately and observing cooking behaviour.

[2] = system: primary knee osteoarthritis; conditions: cited from earlier work
pH of aqueous solution = assay type: physicochemical; conditions: for pH of solution: 2 grams in 180 mL of water
Method: Two grams of glucosamine sulphate in 180 mL of water gives a solution with a pH of 6.06 and glucosamine hydrochloride gives a solution with a pH of 6.07.
A solution of 2 grams of N-acetylglucosamine in 180 mL of water has a pH of 7.40.

[3] = system: osteoarthritis of the temporomandibular joint; conditions: cited from earlier work; for patients improved (positive clinical response = 20% decrease TMJ pain with function): GS 500 mg tid, ibuprofen 400 mg tid, p=0.73 between groups; for number of patients improved (positive clinical response): of 21 GS and 18 ibuprofen completers
osteoarthritis (knee) = conditions: 4-week course, cited from earlier work; for symptoms of osteoarthritis: glucosamine sulphate 1,500 mg, ibuprofen 1,200 mg
[4] = cited from earlier work; for half-life: doses as high as 20 grams per human subject; for adverse events: five subjects
[5] = system: IL-1β-induced NO production in normal human articular chondrocytes; conditions: cited from earlier work; for effect on IL-1β-induced NO production: normal human articular chondrocytes; for Inhibitory Activity on IL-1β induced NO Production: table of various sugars
[6] = cited from earlier work; for absolute bioavailability: compared with IV at 100%
[7] = cited from earlier work
intestinal mucosa [8] = conditions: cited from earlier work
COX-2 = conditions: cited from earlier work; for inhibiting the production of COX-2: human chondrocytes stimulated with IL-1
IL-6 = conditions: cited from earlier work; for inhibiting the production of IL-6: human chondrocytes stimulated with IL-1
Inducible NO Synthetase = conditions: cited from earlier work; for inhibiting the production of nitric oxide synthetase: human chondrocytes stimulated with IL-1
[9] = system: severe treatment-resistant inflammatory bowel disease; conditions: cited from earlier work
COX-1 = conditions: constitutively expressed, human chondrocytes; cited from earlier work
intestinal mucosa [10] = assay: Incorporation of glucosamine and N-acetylglucosamine into glycoproteins of intestinal mucosa in vitro; assay type: cell-based, human; conditions: normal subjects, on average
Text: Inflammatory conditions can also interfere with the incorporation of glucosamine into glycosaminoglycans. Intestinal mucosal from patients with ulcerative colitis and Crohn's disease and from patients without inflammatory disease were studied in vitro. N-acetylglucosamine is preferentially incorporated into glycoproteins over glucosamine. In normal subjects—ratio ranges were from 0.04 to 0.26 with a mean 0.097. Thus on average 10 times more N-acetylglucosamine is incorporated into macromolecules than glucosamine. In IBD the mean ratio of incorporation of glucosamine to N-acetylglucosamine is 0.039 for Crohn's and 0.031 for ulcerative colitis. In other words, 25 to 32 times more N-acetylglucosamine was incorporated into macromolecules compared to glucosamine (2).

[11] = number of patients of 106, three years
[12] = rectal administration as sole therapy
[13] = IL-1β-stimulated human chondrocytes

SMILES: N[C@H]1C(O)O[C@H](CO)[C@@H](O)[C@@H]1O.O=S(=O)(O)O (stereo partly drawn) [Glucosamine Sulphate]
stability in the baking process [1]: break down in the baking process | significant joint space narrowing ([2]; 1.5 grams per day, three years, versus placebo, p<0.05): did not | fasting plasma glucose concentrations ([2]; during the study): decreasing slightly | Withdrawal from Study Due to Adverse Events [2, 11]: 21 | Withdrawal from Study, Lack of Efficacy [2, 11]: 3 | incidence and type of adverse events versus placebo ([2]; three-year period): not different between the two groups | routine laboratory tests (system organs, metabolic functions) ([2]; three-year period): did not show any abnormalities | pH (1% in water) (pH of aqueous solution): 6.06 | pH of solution (pH of aqueous solution): 6.06 | patients improved (positive clinical response = 20% decrease TMJ pain with function) ([3]; 90 days): 71% | patients discontinued due to dizziness ([3]; 90 days): one | patients discontinued due to stomach upset ([3]; 90 days): one | decrease in TMJ pain with function and acetaminophen use, between-group comparison ([3]; between Day 90 and 120, compared with ibuprofen): significantly greater decrease | number of patients improved (positive clinical response) [3]: Fifteen | patients dropped out because of adverse events / side effects (osteoarthritis (knee)): None | symptoms of osteoarthritis (osteoarthritis (knee)): reduced symptoms

SMILES: Cl.N[C@H]1C(O)O[C@H](CO)[C@@H](O)[C@@H]1O (stereo partly drawn) [Glucosamine hydrochloride]
stability in the baking process [1]: break down in the baking process | half-life ([4]; IV): 2.5 h | adverse events [4]: no adverse events reported | blood sugar when administered with 7 units of insulin ([4]; human, in vivo, iv): showed a rise in blood sugar | blood sugar when administered without insulin ([4]; human, in vivo, iv): Neither agent showed a rise in blood sugar | pH (1% in water) (pH of aqueous solution): 6.07 | pH of solution (pH of aqueous solution): 6.07

SMILES: N[C@H]1C(O)O[C@H](CO)[C@@H](O)[C@@H]1O (stereo partly drawn) [Glucosamine]
effect on IL-1β-induced NO production [5]: inhibit | Inhibitory Activity on IL-1β induced NO Production [5]: Weak | absolute bioavailability ([6]; IM administration): 93% | absolute bioavailability ([6]; oral administration): 44% | administered dose excreted by the kidneys ([6]; oral route): about 10% | administered dose excreted via the feces ([6]; oral route): 11% | total body insulin sensitivity ([7]; forearm glucosamine infusion, twenty human volunteers): did not affect | baseline arteriovenous glucose differences ([7]; glucosamine infusion): not affected | forearm blood flow ([7]; glucosamine infusion): did not alter | forearm skeletal muscle glucose uptake ([7]; glucosamine infusion): did not affect | mean ratio of incorporation of glucosamine to N-acetylglucosamine (intestinal mucosa [8]; Crohn's): 0.039 | ratio of incorporation of glucosamine to N-acetylglucosamine, mean (intestinal mucosa [8]; normal subjects): 0.097 | mean ratio of incorporation of glucosamine to N-acetylglucosamine (intestinal mucosa [8]; ulcerative colitis): 0.031 | inhibiting the production of COX-2 (COX-2): not effective | inhibiting the production of IL-6 (IL-6): not effective | inhibiting the production of nitric oxide synthetase (Inducible NO Synthetase): not effective

SMILES: O=C[C@H](O)[C@@H](O)[C@H](O)[C@H](O)C(=O)O [Glucuronic Acid]
effect on IL-1β-induced NO production [5]: do not express this activity | Inhibitory Activity on IL-1β induced NO Production [5]: Nil

SMILES: CC(=O)N[C@@H]1[C@@H](O)[C@@H](O)[C@@H](CO)O[C@@H]1O [N-Acetylgalactosmine]
Inhibitory Activity on IL-1β induced NO Production [5]: Strong

stability in the baking process [1]: stable during the baking process | pH (1% in water) (pH of aqueous solution): 7.4 | pH of solution (pH of aqueous solution): 7.40
SMILES: CC(=O)N[C@H]1C(O)O[C@H](CO)[C@@H](O)[C@@H]1O (stereo partly drawn) [N-Acetylglucosamine, N-acetylglucosamine]
ability to inhibit IL-1β-induced NO production relative to glucosamine ([5]; 10 mM concentration): 5 times | effect on IL-1β-induced NO production [5]: inhibit | Inhibitory Activity on IL-1β induced NO Production [5]: Strong | adverse side-effects of treatment ([9]; 3 to 6 grams daily in three divided doses): no adverse side-effects of treatment were noted in any patient | histology in all cases biopsied ([9]; in vivo): evidence of histological improvement | children with symptomatic Crohn's stricture requiring surgery ([9]; of 7, mean follow-up >2.5 years): 3 | children showing clear improvement ([9]; oral adjunct therapy, 3-6 g daily, 12 children): Eight | children requiring resection ([9]; oral adjunct therapy, 12 children): four | cases of remission ([9]; rectal administration as sole therapy, nine children): two | cases of clear improvement [9, 12]: three | cases of no effect [9, 12]: two | COX-1 Expression, Protein (COX-1): No Inhibition | half-life ([4]; IV): 3.67 h | blood sugar when administered without insulin ([4]; IV, human): Neither agent showed a rise in blood sugar | administered dose excreted in the urine ([4]; IV, in 24 hours): 54% | adverse events [4]: no adverse events reported | COX-2 Expression, Protein (COX-2; [13]): inhibits | COX-2 Expression, mRNA (COX-2; [13]): inhibits | inhibiting the production of COX-2 (COX-2): inhibiting | IL-6 Production (IL-6; [13]): inhibits | inhibiting the production of IL-6 (IL-6): inhibiting | times more N-acetylglucosamine incorporated into macromolecules than glucosamine (intestinal mucosa [10]): 10 times | Inducible NO Synthetase Expression, Protein (Inducible NO Synthetase; [13]): inhibits | Inducible NO Synthetase Expression, mRNA (Inducible NO Synthetase; [13]): inhibits | inhibiting the production of nitric oxide synthetase (Inducible NO Synthetase): inhibiting

SMILES: CC(=O)N[C@@H]1C(O)O[C@H](CO)[C@@H](O)[C@@H]1O (stereo partly drawn) [N-Acetylmannosamine]
effect on IL-1β-induced NO production [5]: do not express this activity | Inhibitory Activity on IL-1β induced NO Production [5]: Nil

SMILES: CC(C)Cc1ccc(C(C)C(=O)O)cc1 (stereo not drawn) [ibuprofen]
patients improved (positive clinical response = 20% decrease TMJ pain with function) ([3]; 90 days): 61% | patients discontinued due to inadequate pain control ([3]; 90 days): one | patients discontinued due to stomach upset ([3]; 90 days): 3 | number of patients improved (positive clinical response) [3]: 11 | patients dropped out because of adverse events / side effects (osteoarthritis (knee)): 10% | symptoms of osteoarthritis (osteoarthritis (knee)): reduced symptoms
